In patent EP1075256B1, “ARYLHYDROCARBON RECEPTOR LIGAND ANTAGONISTS” (priority 1998, dated 1999):

How the values were obtained:
[1] = test system: élément de réponse à la dioxine; test: CAT reporter gene under control of a dioxin response element (DRE), stably transfected T-47D cells; assay type: cell-based; conditions: figure 1A, 10^-6 M de Resvératrol
Excerpt: Les inventeurs ont entrepris d'identifier de nouveaux ligands du récepteur AhR. Pour ce faire, ils ont transfecté de façon stable une lignée de cellules de cancer du sein, T-47D, avec un gène rapporteur (la trans-acétylase du chloramphénicol, ou CAT) placé sous le contrôle d'un élément de réponse à la dioxine ou DRE. La lignée T-47D est connue pour contenir un taux élevé de récepteur AhR (170 femtomoles/mg protéines).
On transfecte de manière stable la lignée T-47D de cellules de cancer du sein avec un gène rapporteur, la trans-acétylase du chloramphénicol, CAT en abrégé, placé sous le contrôle d'un élément de réponse à la dioxine.
On constate que l'inhibition observée est dose-dépendante.

CYP1A1 = test: Induction of Cyp1A1 protein by dioxin in T-47D cells (Western blot); assay type: cell-based; conditions: for effets agonistes / antagonistes: 10^-5M
Procedure: Les cellules sont collectées et lavées dans le PBS, puis lysées par fusion-congélation répétée en conditions isotoniques. 75 µg de protéines sont analysées par électrophorèse en gel de polyacrylamide en conditions dénaturantes. Le gel est transféré sur une membrane de nylon. La membrane est saturée avec 5 % de lait écrémé et incubée avec un anticorps polyclonal de lapin (Daiichi Pure Chemicals Co, Japan) contre Cyp1A1. Les immuncomplexes sont détectés par chimioluminescence avec le kit Renaissance (DuPont). La figure 2 correspond à la photo du Western blot. La flèche montre la bande spécifique de Cyp1A1, les astérisques signalent des bandes non-spécifiques.

récepteur AhR = biological target: T1, récepteur AhR (Oryctolagus cuniculus, UniProt O02747); test: Competition with tritiated dioxin for binding to the AhR receptor in rabbit liver cytosol; design: species or system lapin; conditions: for Kd: displacement of labelled dioxin, read-out: Kd apparent (converted)
T1 construct: On a utilisé un cytosol de foie de lapin pour ces études de compétition; from tissue; host or cells: rabbit liver cytosol
T1 sequence (O02747 1-847): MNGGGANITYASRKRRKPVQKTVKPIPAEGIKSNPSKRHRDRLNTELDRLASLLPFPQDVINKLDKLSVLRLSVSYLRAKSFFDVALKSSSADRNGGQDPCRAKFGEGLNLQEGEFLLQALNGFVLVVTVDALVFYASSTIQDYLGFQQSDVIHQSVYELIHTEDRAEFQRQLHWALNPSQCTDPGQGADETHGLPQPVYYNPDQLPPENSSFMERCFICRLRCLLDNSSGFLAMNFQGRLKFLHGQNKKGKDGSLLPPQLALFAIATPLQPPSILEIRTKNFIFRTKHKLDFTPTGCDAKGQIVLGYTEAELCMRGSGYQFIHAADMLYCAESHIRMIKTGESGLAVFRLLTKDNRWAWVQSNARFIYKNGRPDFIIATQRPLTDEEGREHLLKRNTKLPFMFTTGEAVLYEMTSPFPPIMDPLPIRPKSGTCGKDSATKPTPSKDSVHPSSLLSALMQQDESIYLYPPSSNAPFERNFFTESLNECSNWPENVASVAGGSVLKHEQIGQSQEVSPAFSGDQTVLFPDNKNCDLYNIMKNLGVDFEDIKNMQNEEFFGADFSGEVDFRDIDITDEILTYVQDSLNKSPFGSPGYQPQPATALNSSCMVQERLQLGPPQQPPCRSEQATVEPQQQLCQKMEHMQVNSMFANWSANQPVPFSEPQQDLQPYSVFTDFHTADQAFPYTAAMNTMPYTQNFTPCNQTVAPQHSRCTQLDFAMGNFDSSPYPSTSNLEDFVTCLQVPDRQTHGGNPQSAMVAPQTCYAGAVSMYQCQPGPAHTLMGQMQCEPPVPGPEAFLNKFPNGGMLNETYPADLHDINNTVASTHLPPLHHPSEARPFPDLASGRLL

[2] = test system: élément de réponse à l'estradiol (ERE) du gène de la vitellogénine; test: Transient CAT reporter under estradiol response element (ERE) in T-47D cells; assay type: cell-based
Excerpt: (§1) On a transfecté de façon transitoire les cellules T-47D avec différentes constructions CAT sous contrôle de l'élément de réponse à l'estradiol (ERE) du gène de la vitellogénine ou celui, plus faible, du gène du récepteur de la progestérone, ainsi que des éléments de réponse à la progestérone (PRE) et aux androgènes (ARE) du virus murin MMTV et d'un élément de réponse à la vitamine D (VDRE) synthétique.

[3] = test system: éléments de réponse à la progestérone (PRE); test: Transient CAT reporter under progesterone response element (PRE) in T-47D cells; assay type: cell-based
Excerpt: as §1

[4] = test system: éléments de réponse aux androgènes (ARE); test: Transient CAT reporter under androgen response element (ARE) in T-47D cells; assay type: cell-based
Excerpt: as §1

[5] = test system: élément de réponse à la vitamine D (VDRE); test: Transient CAT reporter under vitamin D response element (VDRE) in T-47D cells; assay type: cell-based
Excerpt: as §1

[6] = test system: NAD(P)H quinone réductase; test: NAD(P)H quinone reductase (NQOR) activity in T-47D cells; assay type: cell-based; conditions: 10^-6 M, dioxine 10^-9 M, 72 h
Excerpt: L'activité NQOR correspondante exprimée en nanomoles de cytochrome c réduit, par mg de protéines, par min, est donnée sur la figure 5.

[7] = test system: promoteur de la séquence répétée (LTR) de VIH-1; test: HIV-1 LTR promoter CAT construct (-452/+77) transfected in T-47D cells; assay type: cell-based; conditions: dioxine 10^-9 M
Excerpt: On a transfecté les cellules T-47D avec une construction CAT contenant ce promoteur (-452/+77).

cyp 1A1 = test: In vivo induction of cyp 1A1 in rats by BaP/DMBA (immunoblot of lung and kidney); design: species or system rats Sprague-Dawley; conditions: equal concentration of substances (1 mg/kg BaP/DMBA plus 1 mg/kg resvératrol)
Procedure: Des rats Sprague-Dawley femelle ont été traités par une combinaison de Benzol [a]pyrène et de DMBA (diméthylbenzanthracène), deux ligands AhR présents dans la fumée de cigarette. Des expériences préliminaires ont montré que cyp 1A1 était induit à partir de 1 mg/kg des deux ligands administrés ensemble. […] Les animaux ont été sacrifiés et les organes prélevés. Des extraits cellulaires totaux ont été préparés et analysés par immunoblot pour détecter l'expression de cyp 1A1 dans ces tissus.

Oc1ccc(/C=C/c2cc(O)cc(O)c2)cc1 [Resvératrol, trans-resvératrol]
effet sur l'induction de CAT par TCDD [1]: effet inhibiteur
effets agonistes / antagonistes (CYP1A1): pur antagoniste
inhibition at 1 µM (CYP1A1; Homo sapiens, T47D, 48 h, read-out: inhibition de l'induction de la protéine CYP1A1): ~60%
excès nécessaire pour observer l'inhibition ex vivo (CYP1A1; ex vivo): 5000 fois
effet inhibiteur compared with α-naphthoflavone (CYP1A1; induction of CYP1A1 by TCDD, T-47D): légérement inférieur
affinité compared with indole-3-carbinol (récepteur AhR): affinité plus forte
effet estrogénique sur l'ERE, fraction of the effect of estradiol ([2]; T-47D, CAT): 1/500.000
effet estrogénique, fraction of the effect of 10^-10 M estradiol ([2]; from 10^-5 M Resvératrol): 1/5
effet sur PRE [3]: aucun effet
effet sur ARE [4]: aucun effet
effet sur VDRE [5]: aucun effet
répression de l'induction indirecte des enzymes de phase II (NAD(P)H quinone réductase) provoquée par la dioxine [6]: ne répriment l'induction indirecte
suppression de l'induction du promoteur de VIH par la dioxine ([7]; Resvératrol 10^-6 M): totalement supprimée
suppression de l'induction de cyp 1A1 in vivo (cyp 1A1): totalement supprimée

Clc1cc2c(cc1Cl)Oc1cc(Cl)c(Cl)cc1O2 [TCDD, 2,3,7,8-tétrachlorodibenzo (p)dioxine, reference compound]
Kd (récepteur AhR): 3 nM
fold induction at 0.001 µM ([7]; Homo sapiens, T47D, T-47D, read-out: induction du promoteur de VIH (facteur)): 3

O=c1cc(-c2ccccc2)oc2c1ccc1ccccc12 [α-NF, alpha-7,8-benzoflavone, reference compound]
effets agonistes / antagonistes (CYP1A1): effets agonistes autant qu'antagonistes
Kd (récepteur AhR): 3 nM
répression de l'induction indirecte des enzymes de phase II (NAD(P)H quinone réductase) provoquée par la dioxine [6]: ne répriment l'induction indirecte
